The values that follow come from PMC8765310, “Metabolism, Excretion, and Mass Balance of [^14C]-Rezafungin in Animals and Humans” (Antimicrobial Agents and Chemotherapy, 2022).

*1 amine or outer side, *2 acyl side, *3 side chain or, on linkers, in order; H or OH if unused. Where a SMILES comes first, the peptide text is derived from it. Bridges are numbered along the chain shown (N, C = ends). [ ]: non-standard residue; d: D form. The star is where a group is joined. Orn(4R-OH,5R-OCH2CH2NMe3+) = C[N+](C)(C)CCO[C@@H](N[*:3])[C@H](O)C[C@H](N[*:1])C(=O)[*:2]; hTyr(3S-OH,4S-OH) = N[C@H](C(=O)O)[C@H](O)[C@@H](O)c1ccc(O)cc1; X1 = CC(O)CCCOc1ccc(-c2ccc(-c3ccc(C(=O)*)cc3)cc2)cc1; X2 = CCCC(O)COc1ccc(-c2ccc(-c3ccc(C(=O)*)cc3)cc2)cc1; X3 = CCC(O)CCOc1ccc(-c2ccc(-c3ccc(C(=O)*)cc3)cc2)cc1; Pro(3S-OH,4S-Me) = C[C@H]1CN[C@H](C(=O)O)[C@H]1O; X4 = O=C(c1ccc(-c2ccc(-c3ccc(O)cc3)cc2)cc1)*; Hyp = O=C(O)[C@@H]1C[C@@H](O)CN1

Data set [1] is described as follows: Monkey metabolite profiling (LC-MS with radioactivity detection). As to conditions: cynomolgus monkey, in vivo, iv, 10 mg/kg. It is filed as in vivo, cynomolgus monkeys. As for the experimental part:
(ii) Monkey study design. The study used 3 male cynomolgus monkeys, each administered a single 10 mg/kg IV dose of [^14C]-rezafungin (with a target radioactivity of 100 μCi/kg of [^14C]-rezafungin) by infusion into a saphenous vein over 20 min. Whole blood and plasma samples were collected at each of the following time points: predose, 0.5, 2, 4, 8, 24, 48, 96 120, 144, 168, 240, 480, 720, and 1440 h postdose. Urine, feces, and cage washings were collected at predose (urine/feces only) and daily 24-h collections for 30 days.
(§1) (iv) Metabolite profiling. The metabolite identification and urine profiling were achieved using pooled samples by equal percent weight of samples (urine, bile, feces) or by equal volume (50 μl) aliquots of each plasma sample across all time points/intervals. The urine, plasma, bile, and fecal samples were analyzed using liquid chromatography tandem mass spectrometry (LC-MS) coupled with a radioactivity flow-through detector for metabolite profiling and identification. Tandem MS experiments were performed, and the structures of the metabolites were proposed based on their MS/MS spectra. The proposed structures were confirmed by comparison of the retention times and product ion spectra with the authentic reference standards when possible.

Data set [2] is described as follows: Rat metabolite profiling (LC-MS with radioactivity detection). It is filed as in vivo, Sprague-Dawley rats. As to conditions: rat, in vivo, iv, 15 mg/kg. As for the experimental part:
(i) Rat study design. The study used 12 male Sprague-Dawley rats, each administered a bolus IV injection into the tail vein over approximately 3–4 min of 15 mg/kg of rezafungin (with a target radioactivity of 200 μCi/kg of [^14C]-rezafungin). Three of the rats were bile duct cannulated. Whole blood/plasma, urine, feces/bile, and cage washings were collected at periodic intervals from noncannulated rats until euthanization at 336 h postdose and from bile duct cannulated rats until euthanization at 120 h postdose as that was the duration that the patency of bile duct cannulae could be maintained. Carcasses were collected at the time of euthanization. All samples were analyzed for drug-derived radioactivity by liquid scintillation counting.
as §1

For data set [3] the following is noted: cited from earlier work. The text has this:
Biliary excretion has been observed for caspofungin([17]) and anidulafungin([18]). In the case of anidulafungin, although uncommon, passive diffusion (up to 10% of dosed fraction) was reported for anidulafungin, with which rezafungin ...

`CCCC(O)COc1ccc(-c2ccc(-c3ccc(C(=O)N[C@H]4C[C@@H](O)[C@@H](OCC[N+](C)(C)C)NC(=O)[C@@H]5[C@@H](O)[C@@H](C)CN5C(=O)[C@H]([C@@H](C)O)NC(=O)[C@H]([C@H](O)[C@@H](O)c5ccc(O)cc5)NC(=O)[C@@H]5C[C@@H](O)CN5C(=O)[C@H]([C@@H](C)O)NC4=O)cc3)cc2)cc1` (stereo partly drawn) [2’-hydroxylpentyl rezafungin] (X2-[Orn(4R-OH,5R-OCH2CH2NMe3+)]T[Hyp][hTyr(3S-OH,4S-OH)]T[Pro(3S-OH,4S-Me)]; lactam 1-C): the “Share of total plasma radioactivity exposure” value is reported as 3.0% in data set [1] and around 11% in data set [2]. The “Share of total recovered radioactivity in urine” value (“Share … in urine” for short) in data set [1] was 25%; in data set [2], 7.8%.

On to `CCC(O)CCOc1ccc(-c2ccc(-c3ccc(C(=O)N[C@H]4C[C@@H](O)[C@@H](OCC[N+](C)(C)C)NC(=O)[C@@H]5[C@@H](O)[C@@H](C)CN5C(=O)[C@H]([C@@H](C)O)NC(=O)[C@H]([C@H](O)[C@@H](O)c5ccc(O)cc5)NC(=O)[C@@H]5C[C@@H](O)CN5C(=O)[C@H]([C@@H](C)O)NC4=O)cc3)cc2)cc1` (stereo partly drawn) [3′-hydroxylpentyl rezafungin] (X3-[Orn(4R-OH,5R-OCH2CH2NMe3+)]T[Hyp][hTyr(3S-OH,4S-OH)]T[Pro(3S-OH,4S-Me)]; lactam 1-C), for which, in data set [1], the “Share of total plasma radioactivity exposure” value worked out at 6.3% and the “Share … in urine” value was 12%. In addition, in data set [2], the “Share … in urine” value was 1.9%.

Regarding `CC(O)CCCOc1ccc(-c2ccc(-c3ccc(C(=O)N[C@H]4C[C@@H](O)[C@@H](OCC[N+](C)(C)C)NC(=O)[C@@H]5[C@@H](O)[C@@H](C)CN5C(=O)[C@H]([C@@H](C)O)NC(=O)[C@H]([C@H](O)[C@@H](O)c5ccc(O)cc5)NC(=O)[C@@H]5C[C@@H](O)CN5C(=O)[C@H]([C@@H](C)O)NC4=O)cc3)cc2)cc1` (stereo partly drawn) [4’-hydroxylpentyl rezafungin] (X1-[Orn(4R-OH,5R-OCH2CH2NMe3+)]T[Hyp][hTyr(3S-OH,4S-OH)]T[Pro(3S-OH,4S-Me)]; lactam 1-C), in data set [1], the “Share of total plasma radioactivity exposure” value amounted to 8.3% and the “Share … in urine” value was 42%. Moreover, in data set [2], the “Share of total plasma radioactivity exposure” value was “about 33%” and the “Share … in urine” value is 62%.

With `C[C@@H](O)[C@@H]1NC(=O)[C@H]([C@H](O)[C@@H](O)c2ccc(O)cc2)NC(=O)[C@@H]2C[C@@H](O)CN2C(=O)[C@H]([C@@H](C)O)NC(=O)[C@@H](NC(=O)c2ccc(-c3ccc(-c4ccc(O)cc4)cc3)cc2)C[C@@H](O)[C@@H](OCC[N+](C)(C)C)NC(=O)[C@@H]2[C@@H](O)[C@@H](C)CN2C1=O` [despentyl-rezafungin] (X4-[Orn(4R-OH,5R-OCH2CH2NMe3+)]T[Hyp][hTyr(3S-OH,4S-OH)]T[Pro(3S-OH,4S-Me)]; lactam 1-C), in data set [1], the “Share of total recovered radioactivity in feces” value was 25%. Also, the “Share … in urine” value in data set [1] is on record as 22%; in data set [2] it was 28%.

As for anidulafungin, in data set [3], the “Passive diffusion, dosed fraction” value is “up to 10 % of dosed fraction”.
